Experimental data published in PubChem BioAssay (NCI).
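Interpolation was linear, between the two tested concentrations surrounding the appropriate level; five concentrations were tested over 48 hours in 96-well plates. TGI is the concentration that stops growth completely.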

How the values were obtained:
Assay in all cases: NCI-60 cell line screen, 48 h
EKVX NSCLC = test system: EKVX NSCLC
NCI-H226 lung = test system: NCI-H226 lung
MCF7 breast = test system: MCF7 breast
KM12 colon = test system: KM12 colon
ACHN renal = test system: ACHN renal
BT-549 breast = test system: BT-549 breast
A498 renal = test system: A498 renal
LOX IMVI melanoma = test system: LOX IMVI melanoma
SN12C renal = test system: SN12C renal
M14 melanoma = test system: M14 melanoma
SNB-19 CNS = test system: SNB-19 CNS
HCC-2998 colon = test system: HCC-2998 colon
HT29 colon = test system: HT29 colon
NCI/ADR-RES ovarian = test system: NCI/ADR-RES ovarian
SW-620 colon = test system: SW-620 colon
HOP-92 NSCLC = test system: HOP-92 NSCLC
HOP-62 NSCLC = test system: HOP-62 NSCLC
SNB-75 CNS = test system: SNB-75 CNS
CCRF-CEM leukemia = test system: CCRF-CEM leukemia

SMILES	TGI (EKVX NSCLC) [µM]	TGI (NCI-H226 lung) [µM]	TGI (MCF7 breast) [µM]	TGI (KM12 colon) [µM]	TGI (ACHN renal) [µM]	TGI (BT-549 breast) [µM]	TGI (A498 renal) [µM]	TGI (LOX IMVI melanoma) [µM]	TGI (SN12C renal) [µM]	TGI (M14 melanoma) [µM]	TGI (SNB-19 CNS) [µM]	TGI (HCC-2998 colon) [µM]	TGI (HT29 colon) [µM]	TGI (NCI/ADR-RES ovarian) [µM]	TGI (SW-620 colon) [µM]	TGI (HOP-92 NSCLC) [µM]	TGI (HOP-62 NSCLC) [µM]	TGI (SNB-75 CNS) [µM]	TGI (CCRF-CEM leukemia) [µM]
COc1ccc(/C=C2\CCS(=O)(=O)c3ccccc3C2=O)cc1OC	> 100	> 100	> 100	> 100	> 100	76.2	73.7	43.8	> 100	> 100	> 100	44.1	> 100	81.6	> 100	> 100	> 100	98.4	> 100
c1ccc(CN[C@]23C4C5CC6C7C5C2C7[C@@](NCc2ccccc2)(C64)N3Cc2ccccc2)cc1 (stereo partly drawn)	> 100	> 100	> 100	> 100	> 100	> 100	> 100	> 100	> 100	> 100	> 100	–	> 100	> 100	> 100	> 100	> 100	> 100	> 100
CCOC(=O)C[n+]1cccc(C2(c3cc4ccccc4[nH]3)OCCO2)c1	> 100	> 100	> 100	> 100	> 100	> 100	> 100	> 100	–	> 100	> 100	> 100	> 100	> 100	> 100	> 100	> 100	> 100	> 100
C=C1C(=O)O[C@H]2[C@H]3O[C@@H](C[C@@H]12)[C@@]1(C)CC[C@H](O1)[C@H](C)CCC[C@H]3C	2.84	3.87	3.98	4.05	2.84	2.17	3.17	2.94	6.61	–	21.7	2.57	3.04	2.99	4.26	3.48	16.3	3.15	2.99
CC(=O)OC(Cc1ccc2ccccc2n1)(C(F)(F)F)C(F)(F)F	10.2	4.77	0.559	12.7	14.4	4.17	14.6	0.409	7.27	3.48	14.7	7.57	5.43	> 19.6	12	0.933	27.9	13.5	1.95
O=C(CCCCCC(=O)N1CC(CCl)c2ccc([N+](=O)[O-])cc21)N1CC(CCl)c2ccc([N+](=O)[O-])cc21 (stereo not drawn)	> 100	> 100	> 100	> 100	> 100	> 100	> 100	> 100	> 100	> 100	> 100	> 100	–	> 100	> 100	> 100	> 100	> 100	> 100
COC12CCCN1c1ccn(Cc3ccccc3)c(=O)c1C2=O (stereo not drawn)	> 100	> 100	> 100	> 100	> 100	> 100	> 100	> 100	> 100	> 100	> 100	> 100	> 100	> 100	> 100	> 100	–	> 100	> 100
CCOC(=O)C(CC(C)C)NC(=O)CSc1nnc(COc2ccc(Cl)cc2)n1-c1ccccc1 (stereo not drawn)	–	48.5	35	39.7	26	32.1	28.2	28.9	28.9	31.9	31.6	27.4	32.7	44.3	49.7	39.8	36.8	32	23.8
COc1ccc2c(c1)C/C(=C\c1cccc3ccccc13)C2=O	> 100	59.7	> 100	> 100	> 100	> 100	> 100	> 100	> 100	> 100	> 100	> 100	> 100	> 100	> 100	–	–	> 100	> 100
O=c1c2c3c(sc2nc2n1N=C(c1ccc(Cl)cc1)CS2)CCCC3	> 100	> 100	> 100	> 100	> 100	> 100	> 100	> 100	> 100	–	–	> 100	> 100	> 100	> 100	> 100	> 100	> 100	> 100
NNc1nncc2[nH]cnc12	> 100	> 100	> 100	> 100	> 100	> 100	> 100	–	> 100	> 100	> 100	–	> 100	> 100	> 100	–	> 100	> 100	> 100
O=C(CCCCCCCCC(=O)N1C(=O)CC(=O)N(c2ccccc2)C1=S)N1C(=O)CC(=O)N(c2ccccc2)C1=S	> 100	–	> 100	> 100	> 100	> 100	> 100	> 100	> 100	> 100	> 100	> 100	> 100	> 100	–	> 100	> 100	> 100	> 100
